In patent US5250542A, “Peripherally selective piperidine carboxylate opioid antagonists” (Eli Lilly and Company, priority 1992, dated 1993):
Where a name gives a salt, the structure may show the parent alone. Read-outs that look alike come from different tables or passages of the source.

Columns and labels:
[1] = target: T1, peripheral opioid receptors (Mus musculus, UniProt P42866); experiment: precipitated diarrhea in morphine-maintained mice (peripheral opioid activity) and comparison with the writhing test; type: in vivo; details: for Ratio (AD50 mouse writhing test / ED50 mouse diarrhea test): higher ratio = greater relative antagonism of peripheral opioid receptors; for ED50: mouse, 0.5 h, morphine-maintained mice, antagonist subcutaneous or oral, 30 min observation
T1 construct: Mice maintained (6 mice/cage) on 0.01M saccharin water with 1 g/1 morphine sulfate; from tissue; host or cells: living morphine-maintained mice (in vivo test; endogenous receptor)
Description: Determinations of peripheral opioid activity were conducted. Mice maintained (6 mice/cage) on 0.01M saccharin water with 1 g/1 morphine sulfate for a minimum of 10 days with mice averaging 3.0^+ g water/mouse/day for at least three days are used as subjects. The morphine water was removed 45 min. prior to injection with the proposed opioid antagonist. Initial testing consisted of 5 mice/dose of compound. The antagonist was given by the subcutaneous or oral, route of administration,and the mice were placed in 11-14"×4 7/12 I.D. clear plastic cylinders with white paper towels used for a floor.
The mice were then monitored visually for 30 minutes post-injection for the presence of jumping and of diarrhea. Jumping was scored as positive if at least one jump occurred in 30 min. Diarrhea was scored as positive when feces were moist enough to stain the white paper at the base of the cylinder. After 30 minutes of testing, the mice were placed back in original cages, put back on morphine water, and not tested again for 48 hrs. Lower doses of the antagonist compounds were tested until threshold doses for diarrhea were determined. Diarrhea is a peripherally mediated sign of precipitated opiate abstinence.
The extent of the effect on peripheral activity compared to central activity of the present compounds can-be determined by comparing the AD50 for the mouse writhing test with the ED50 for the mouse diarrhea test. The higher the ratio, the greater the relative antagonism of the peripheral opioid receptors by a particular compound.

opioid receptor = target: T2, opioid receptor (Mus musculus, UniProt P42866); experiment: mouse writhing analgesis test: block of morphine-induced analgesia; type: in vivo, CF-1 male mice; parameters: unit not given here; details: dose of antagonist that reduced the inhibition of writhing produced by 1.25 mg/kg morphine sulfate to 50%; subcutaneous, 20 min before acetic acid
T2 construct: Five CF-1 male mice (Charles River, Portage, Mich.); from tissue; host or cells: living CF-1 male mice (in vivo test; endogenous receptor)
Description: In order to determine in vivo opioid receptor antagonism, the mouse writhing analgesis test was used. Test compounds were measured for their ability to block morphine-induced analgesia.
Five CF-1 male mice (Charles River, Portage, Mich.), weighing approximately 20 g after being fasted overnight, were observed simultaneously for the writhing response. The writhing response was defined as a contraction of the abdominal musculature, followed by the extension of the hind limbs, and was induced by the intraperitoneal adminstration of 0.6% acetic acid in a volumne of 1 ml/100 g body weight. The observation period was 10 min. in duration, beginning 5 min. after injection of acetic acid. The percent inhibition of writhing was calculated from the average number of writhes in the control (non-drug) group. Each data point is the mean (±standarderror) for five mice. The ED50 was defined as the dose of agonist that inhibited mean writhing by 50%. […] Each mouse was only used once. All drugs were administered subcutaneously (1 ml/100 g bwt) 20 min. before the injection of acetic acid.

mu receptor = target: T3, mu receptor (Rattus norvegicus, UniProt P33535); experiment: opioid receptor binding assay, [3H] NAL (tritiated naloxone), mu receptor; parameters: species or system rat (Male Sprague Dawley), brain minus cerebellum; details: for inhibition at 0.01 µM / inhibition at 0.1 µM: 20 min
T3 construct: rat whole brain minus cerebellum for mu was homogenized; from tissue; host or cells: brain of male Sprague Dawley rats, whole brain minus cerebellum, homogenate fraction
Description: This assay was conducted by the following procedure.
Male Sprague Dawley rats for mu site experiments were sacrificed via decapitation and the brains were removed. The brain tissue, rat whole brain minus cerebellum for mu was homogenized in a Teflon and glass tissue homogenizer. A supernatant I, pellet IV, fraction was frozen in a nitrogen freezer at 1.33 g/ml concentration and stored for not longer than five weeks prior to use. Pellets were rehydrated with physiological buffer prior to use.
The reaction was initiated by the addition of the resuspended tissue which had been preincubated at 37° C. for 20 minutes. The reaction mixture was incubated in a 37° C. water bath for 20 minutes. The reaction was terminated by rapid filtration, (Brandel Cell Harvestor), through Whatman GF/B glass filters that had been presoaked in Krebs-Hepes buffer pH 7.4. The filters were then washed 2x with 5 ml of ice cold Krebs-Hepes buffer pH 7.4. Washed filters were placed in scintillation vials and 10 ml RedySolv, (Brandel), was added and samples counted in a Searle D-300 beta counter. Means and standard error statistics were calculated for triplicate experimental determinations in certain cases. The incubation time for the reaction mixture was 20 minutes at 37° C.
Ki values were calculated using a minitab statistical program according to the following formula: [formula] wherein IC50 is the concentration at which 50% of the ^3 H ligand is displaced by the test compounds and KD is the dissociation constant for the ^3 H ligand at the receptor site. KD can be determined as described by Bennett, "Methods in Binding Studies", Neurotransmitter Receptor Binding, Yamamura, et al., ed., p. 57-90, Raven Press, N.Y. (1978) incorporated herein by reference.
In the Table, column 1 sets forth the Example Number of the compound evaluated, column 2 the Ki value in nanomolar (nM) at the mu receptor and columns 3 and 4 the percent displacement by the test compound at the indicated concentration, i.e., 10 nm or 100 nm.

[2] = read-out: % displacement at 10 nM, 10 nM test compound, [3H] naloxone 0.5 nM
[3] = read-out: % displacement at 100 nM, 100 nM test compound, [3H] naloxone 0.5 nM

T3 sequence (P33535 whole entry): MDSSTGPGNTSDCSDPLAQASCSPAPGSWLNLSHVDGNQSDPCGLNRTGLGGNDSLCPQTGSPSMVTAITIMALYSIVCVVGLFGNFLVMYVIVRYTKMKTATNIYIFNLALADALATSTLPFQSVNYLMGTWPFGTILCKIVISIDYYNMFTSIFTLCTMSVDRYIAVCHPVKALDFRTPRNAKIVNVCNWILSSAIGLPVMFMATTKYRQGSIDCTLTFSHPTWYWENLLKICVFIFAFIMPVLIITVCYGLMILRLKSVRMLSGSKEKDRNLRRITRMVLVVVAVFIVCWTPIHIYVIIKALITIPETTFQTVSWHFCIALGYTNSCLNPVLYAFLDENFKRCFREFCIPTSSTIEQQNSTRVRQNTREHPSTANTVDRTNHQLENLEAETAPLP
T1 sequence (P42866 whole entry): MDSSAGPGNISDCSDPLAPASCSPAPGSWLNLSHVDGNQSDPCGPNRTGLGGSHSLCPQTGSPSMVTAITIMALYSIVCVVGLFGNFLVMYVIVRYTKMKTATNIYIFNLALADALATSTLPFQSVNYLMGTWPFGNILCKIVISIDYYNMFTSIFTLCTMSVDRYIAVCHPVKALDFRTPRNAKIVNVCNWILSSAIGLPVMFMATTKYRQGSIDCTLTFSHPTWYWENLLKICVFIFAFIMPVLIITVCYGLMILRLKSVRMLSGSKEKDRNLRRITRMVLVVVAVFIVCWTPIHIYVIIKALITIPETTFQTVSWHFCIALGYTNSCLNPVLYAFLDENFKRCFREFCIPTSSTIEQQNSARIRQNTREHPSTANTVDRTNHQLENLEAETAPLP
T2 sequence (P42866 whole entry): as above

| SMILES | Ratio (AD50 mouse writhing test / ED50 mouse diarrhea test) [1] | ED50 [1] [mg/kg] | AD50 (opioid receptor) | Ki (mu receptor) [nM] | inhibition at 0.01 µM (mu receptor; [2]) [%] | inhibition at 0.1 µM (mu receptor; [3]) [%] | inhibition at 0.1 µM (mu receptor; read-out: % displacement at 100 nM) [%] | inhibition at 0.01 µM (mu receptor; read-out: % displacement at 10 nM) [%] |
| --- | --- | --- | --- | --- | --- | --- | --- | --- |
| CCOC(=O)CNC(=O)C(CCN1CC[C@@](C)(c2cccc(O)c2)[C@@H](C)C1)c1ccccc1 (relative stereo) [Example 11, 2-[[4-4-(3-hydroxyphenyl)-3,4-dimethyl-1-piperidinyl]-1-oxo-2-phenylbutyl]amino]-acetic acid ethyl ester monohydrochloride] | 141 | 0.017 | 2.4 | 0.3 | 81 | 89 | – | – |
| C[C@H]1CN(CCC(C(=O)NCC(=O)O)c2ccccc2)CC[C@@]1(C)c1cccc(O)c1 (relative stereo) [Example 12, 2-[[4-[4-(3-hydroxyphenyl)-3,4-dimethyl-1-piperidinyl]-2-phenyl-1-oxobutyl]amino]ethanoic acid monohydrate] | 2667 | 0.015 | 40 | 1.89 | 84 | – | 94 | – |
| CCNC(=O)CNC(=O)C(CCN1CC[C@@](C)(c2cccc(O)c2)[C@@H](C)C1)c1ccccc1 (relative stereo) [Example 15, N-ethyl-2-[[4-[4-(3-hydroxyphenyl)-3,4-dimethyl-1-piperidinyl]]-2-phenyl-1-oxobutylamino]-acetamide monohydrochloride monohydrate] | > 133 | 0.3 | > 40 | 1.07 | 99 | 100 | – | – |
| C[C@H]1CN(CCC(C(=O)NCCC(N)=O)C2CCCCC2)CC[C@@]1(C)c1cccc(O)c1 (relative stereo) [Example 17, monohydrochloride] | > 667 | 0.06 | > 40 | 0.43 | 97 | 100 | – | – |
| CNC(=O)CCNC(=O)C(CCN1CC[C@@](C)(c2cccc(O)c2)[C@@H](C)C1)C1CCCCC1 (relative stereo) [Example 18, N-[3-(methylamino)-3-oxopropyl]-4-[4-(3-hydroxyphenyl)-3,4-dimethyl-1-piperidinyl]-2-cyclohexyl-butanamide monohydrochloride] | > 888 | 0.045 | > 40 | 0.43 | 97 | – | – | – |
| C[C@H]1CN(CCC(C(=O)NCC(N)=O)C2CCCCC2)CC[C@@]1(C)c1cccc(O)c1 (relative stereo) [Example 20, N-(2-amino-2-oxoethyl)-4-[4-(3hydroxyphenyl)-3,4-dimethyl-1-piperidinyl]-2-cyclohexylbutanamide hydrochloride monohydrate] | 802 | 0.004 | 32.1 | 0.78 | 98 | 100 | – | – |
| CNC(=O)CNC(=O)C(CCN1CC[C@@](C)(c2cccc(O)c2)[C@@H](C)C1)C1CCCCC1 (relative stereo) [Example 21, N-[2-(methylamino)-2-oxoethyl]-4-[4-(3-hydroxyphenyl)-3,4-dimethyl-1-piperidinyl]-2-cyclohexyl butanamide hydrochloride] | > 125 | 0.16 | > 20 | 0.45 | 96 | 100 | – | – |
| CCNC(=O)CNC(=O)C(CCN1CC[C@@](C)(c2cccc(O)c2)[C@@H](C)C1)C1CCCCC1 (relative stereo) [Example 22, N-[2-(ethylamino)-2-oxoethyl]-4-[4-(3-hydroxyphenyl)-3,4-dimethyl-1-piperidinyl]-2-cyclohexyl butanamide hydrochloride] | > 500 | 0.08 | > 40 | 0.33 | 100 | 96 | – | – |
| CCOC(=O)CCCNC(=O)C(CCN1CC[C@@](C)(c2cccc(O)c2)[C@@H](C)C1)C1CCCCC1 (relative stereo) [Example 23, 4-[2-cyclohexyl-4-[4-(3-hydroxyphenyl)-3,4-dimethyl-1-piperidinyl]-1-oxobutyl]amino]-butanoic acid ethyl ester monohydrochloride monohydrate] | > 140 | 0.14 | > 20 | 1.65 | 100 | 96 | – | – |
| CNC(=O)CCCNC(=O)C(CCN1CC[C@@](C)(c2cccc(O)c2)[C@@H](C)C1)C1CCCCC1 (relative stereo) [Example 24, N-methyl-4-[[4-[4-(3-hydroxyphenyl)-3,4-dimethyl-1-piperidinyl]-2-cyclohexyl-1-oxobutyl]amino]butanamide monohydrochloride monohydrate] | > 400 | 0.1 | > 40 | 0.45 | 100 | 100 | – | – |
| C[C@H]1CN(CCC(C(=O)NCCC(=O)OCc2ccccc2)C2CCCCC2)CC[C@@]1(C)c1cccc(O)c1 (relative stereo) [Example 25, 3-[[2-cyclohexyl-4-[4-(3-hydroxyphenyl)-3,4-dimethyl-1-piperidinyl]-1-oxobutyl]amino]propanoic acid phenylmethyl ester hydrochloride monohydrate] | 40 | 0.29 | 11.5 | 0.22 | 100 | 100 | – | – |
| C[C@H]1CN(CCC(C(=O)NCCC(=O)O)C2CCCCC2)CC[C@@]1(C)c1cccc(O)c1 (relative stereo) [Example 26, 3-[4-[3,4-dimethyl-4-(-3-hydroxyphenyl)-1-piperidinyl]-2-cyclohexyl-1-oxobutylamino]-propanoic acid monohydrate] | 250 | 0.03 | 7.5 | 1.17 | 76 | 91 | – | – |
| C[C@H]1CN(CCC(C(=O)NCC(=O)O)C2CCCCC2)CC[C@@]1(C)c1cccc(O)c1 (relative stereo) [Example 27, 2-[[2-cyclohexyl-4-[4-(3-hydroxyphenyl)-3,4-dimethyl-1-piperidinyl]-1-oxobutyl]amino]-acetic acid monohydrate] | 51 | 0.3 | 15.3 | 0.91 | – | 99 | – | 92 |
